The target of data set [1] is Phosphatidylinositol 4,5-bisphosphate 3-kinase catalytic subunit alpha isoform (Mus musculus, UniProt P42337). The experiment in a line: Inhibition of mouse recombinant PI3K p110alpha expressed in Sf21 insect cells using phosphatidylinositol as substrate after 1 hr by phosphoimaging.
A short description of data set [2]: Inhibition of bovine recombinant PI3K p110delta expressed in Sf21 insect cells using phosphatidylinositol as substrate after 1 hr by phosphoimaging. On the set-up: species or system Bos taurus.
The nature of data set [3]: cells. As to conditions: Homo sapiens, NZB5.
A short description of data set [4]: cells. As to conditions: Homo sapiens, NZOV9.
The target in data set [5] is Phosphatidylinositol 4,5-bisphosphate 3-kinase catalytic subunit beta isoform (Homo sapiens, UniProt P42338). Briefly: Inhibition of human recombinant PI3K p110beta expressed in Sf21 insect cells using phosphatidylinositol as substrate after 1 hr by phosphoimaging.
Phosphatidylinositol 4,5-bisphosphate 3-kinase catalytic subunit beta isoform, sequence (P42338 whole entry, canonical isoform): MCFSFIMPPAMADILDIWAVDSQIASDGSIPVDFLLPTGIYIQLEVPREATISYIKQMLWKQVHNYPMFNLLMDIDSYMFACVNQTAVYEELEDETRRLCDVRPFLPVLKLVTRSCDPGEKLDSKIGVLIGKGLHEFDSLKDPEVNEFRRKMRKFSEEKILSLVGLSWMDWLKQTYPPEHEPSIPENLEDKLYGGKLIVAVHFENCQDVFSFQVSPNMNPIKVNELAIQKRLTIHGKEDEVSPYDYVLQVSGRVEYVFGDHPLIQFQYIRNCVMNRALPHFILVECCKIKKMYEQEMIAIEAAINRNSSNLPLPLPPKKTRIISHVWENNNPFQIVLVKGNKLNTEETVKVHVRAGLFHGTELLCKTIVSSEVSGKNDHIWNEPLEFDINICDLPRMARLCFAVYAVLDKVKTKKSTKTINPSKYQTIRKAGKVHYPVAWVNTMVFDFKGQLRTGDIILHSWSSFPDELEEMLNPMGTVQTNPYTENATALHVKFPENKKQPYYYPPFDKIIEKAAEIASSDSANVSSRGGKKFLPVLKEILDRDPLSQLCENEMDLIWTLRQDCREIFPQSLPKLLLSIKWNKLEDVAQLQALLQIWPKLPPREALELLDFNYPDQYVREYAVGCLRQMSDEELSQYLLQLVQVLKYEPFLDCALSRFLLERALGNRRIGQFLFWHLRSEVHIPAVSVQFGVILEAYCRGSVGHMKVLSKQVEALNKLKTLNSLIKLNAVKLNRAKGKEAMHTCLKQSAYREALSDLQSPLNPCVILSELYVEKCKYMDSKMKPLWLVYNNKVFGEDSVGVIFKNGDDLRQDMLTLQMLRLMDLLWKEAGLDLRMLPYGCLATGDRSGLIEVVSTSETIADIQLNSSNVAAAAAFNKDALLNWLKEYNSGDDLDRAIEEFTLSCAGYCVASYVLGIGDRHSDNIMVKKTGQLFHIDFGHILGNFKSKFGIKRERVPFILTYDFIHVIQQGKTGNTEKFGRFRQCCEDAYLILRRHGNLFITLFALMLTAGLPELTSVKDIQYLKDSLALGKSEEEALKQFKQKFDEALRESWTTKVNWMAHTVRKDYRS
Data set [6] is described as follows: Aqueous solubility of the compound in water after 15 mins by HPLC analysis. As to conditions: aqueous medium.

The term IC50 denotes the concentration needed to halve the response being measured. Broadly, the solubility is the concentration that dissolves in the medium under given conditions. The low end stands for little dissolved substance, the high end for much dissolved substance.

Phosphatidylinositol 4,5-bisphosphate 3-kinase catalytic subunit alpha isoform, sequence (P42337 whole entry, canonical isoform): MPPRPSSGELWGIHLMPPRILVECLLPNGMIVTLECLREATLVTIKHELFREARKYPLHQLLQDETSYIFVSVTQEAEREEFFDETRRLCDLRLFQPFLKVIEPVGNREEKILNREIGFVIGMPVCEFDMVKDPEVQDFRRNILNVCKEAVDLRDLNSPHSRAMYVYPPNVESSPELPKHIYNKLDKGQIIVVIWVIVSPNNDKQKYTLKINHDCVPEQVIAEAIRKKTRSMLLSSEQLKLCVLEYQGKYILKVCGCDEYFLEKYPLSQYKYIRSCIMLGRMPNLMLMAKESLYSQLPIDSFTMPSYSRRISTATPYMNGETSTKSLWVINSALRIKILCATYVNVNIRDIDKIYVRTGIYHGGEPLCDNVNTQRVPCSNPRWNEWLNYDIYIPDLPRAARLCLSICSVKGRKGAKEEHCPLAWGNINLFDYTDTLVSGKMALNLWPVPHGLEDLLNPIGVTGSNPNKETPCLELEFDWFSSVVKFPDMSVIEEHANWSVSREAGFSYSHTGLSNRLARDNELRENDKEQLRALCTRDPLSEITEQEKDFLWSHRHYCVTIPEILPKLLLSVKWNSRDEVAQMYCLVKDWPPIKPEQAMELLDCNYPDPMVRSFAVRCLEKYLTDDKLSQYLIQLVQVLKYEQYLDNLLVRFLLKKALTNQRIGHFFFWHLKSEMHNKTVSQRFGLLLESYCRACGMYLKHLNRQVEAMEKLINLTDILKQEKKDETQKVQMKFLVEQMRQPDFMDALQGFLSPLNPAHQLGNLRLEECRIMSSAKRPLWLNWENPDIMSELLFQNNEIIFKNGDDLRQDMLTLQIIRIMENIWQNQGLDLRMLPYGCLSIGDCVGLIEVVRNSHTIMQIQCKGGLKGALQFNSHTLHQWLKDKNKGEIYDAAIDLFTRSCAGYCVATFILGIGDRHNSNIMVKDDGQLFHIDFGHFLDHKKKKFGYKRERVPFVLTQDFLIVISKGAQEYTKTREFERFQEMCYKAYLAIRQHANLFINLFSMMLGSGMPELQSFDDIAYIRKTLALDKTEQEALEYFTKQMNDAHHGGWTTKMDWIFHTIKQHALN

In the case of `FCc1nc2ccccc2n1-c1nc(N2CCOCC2)nc(N2CCOCC2)n1`, the half-maximal inhibitory concentration (IC50) was determined as 0.034 µM in data set [1]; 0.013 µM in data set [2]; 0.39 µM in data set [3]; 0.35 µM in data set [4]; 0.053 µM in data set [5].
For `CS(=O)(=O)c1nc2ccccc2n1-c1nc(N2CCOCC2)nc(N2CCOCC2)n1`, the IC50 in data set [1] was 0.203 µM; in data set [2] it was 0.076 µM; in data set [3] it was 10 µM; in data set [4], 2 µM; in data set [5], 0.383 µM.
Taken in the same sequence, the figures for `COc1cncc2c1nc(C(F)F)n2-c1nc(N2CCOCC2)nc(N2CCOCC2)n1` were 1.29 µM, 1.6 µM, 5.6 µM, 2.6 µM and 1.03 µM.
`COc1cc(N)cc2c1nc(C(F)F)n2-c1nc(N2CCOCC2)nc(N2CCOCC2)n1.CS(=O)(=O)O` yielded a solubility at […] in data set [6] of 4.2 µg/mL.
For `C[S+]([O-])Cc1nc2ccccc2n1-c1nc(N2CCOCC2)nc(N2CCOCC2)n1` (centres undefined), the half-inhibitory concentration (IC50) in data set [1] worked out at 0.59 µM; in data set [2] it was 0.035 µM; in data set [3], 0.4 µM; in data set [4], 0.49 µM; in data set [5] it was 0.23 µM.
For the molecule `NC(=O)c1cccc2c1nc(C(F)F)n2-c1nc(N2CCOCC2)nc(N2CCOCC2)n1`, the IC50 is over 1 µM in data set [1], 1 µM in data set [2], 0.76 µM in data set [3] and over 1 µM in data set [5].
For the molecule `CS(=O)(=O)Cc1nc2ccccc2n1-c1nc(N2CCOCC2)nc(N2CCOCC2)n1`, the 50% inhibitory concentration (IC50) amounted to 0.48 µM in data set [1]; 0.054 µM in data set [2]; 0.25 µM in data set [3]; 0.44 µM in data set [4]; 0.25 µM in data set [5].
As to `Cc1nc2ccccc2n1-c1nc(N2CCOCC2)nc(N2CCOCC2)n1`, the IC50 in data set [1] was determined as 0.143 µM; in data set [2] it was 0.035 µM; in data set [3] it was 0.28 µM; in data set [4] it was 0.6 µM; in data set [5] it was 0.289 µM.
Taken in the same sequence, the figures for `CS(=O)(=O)Oc1cccc2c1nc(C(F)F)n2-c1nc(N2CCOCC2)nc(N2CCOCC2)n1` were 0.294 µM, 0.158 µM, 0.17 µM, 0.13 µM and 0.57 µM.
As for `Oc1cccc2c1nc(C(F)F)n2-c1nc(N2CCOCC2)cc(N2CCOCC2)n1`, the concentration for half-maximal inhibition (IC50) in data set [1] came out at 0.0015 µM; in data set [2] it was 0.00027 µM; in data set [3], 0.1 µM; in data set [5] it was 0.00081 µM.
On to `CNc1cccc2c1nc(C(F)F)n2-c1nc(N2CCOCC2)nc(N2CCOCC2)n1`, for which the IC50 in data set [1] came to 0.21 µM; in data set [2], 0.067 µM; in data set [3] it was 0.11 µM; in data set [4] it was 0.26 µM; in data set [5], 0.48 µM.
The corresponding values for `CCCOc1cccc2c1nc(C(F)F)n2-c1nc(N2CCOCC2)nc(N2CCOCC2)n1` are 0.016 µM, 0.095 µM, 0.07 µM, 0.05 µM and 0.518 µM.
Taken in the same sequence, the figures for `CN(C)c1cccc2c1nc(C(F)F)n2-c1nc(N2CCOCC2)nc(N2CCOCC2)n1` were 5.4 µM, 0.539 µM, 0.06 µM, 2.54 µM and over 1 µM.
In the case of `OCc1nc2ccccc2n1-c1nc(N2CCOCC2)nc(N2CCOCC2)n1`, the IC50 in data set [1] is over 1 µM; in data set [2], 5.47 µM; in data set [3] it was 0.75 µM; in data set [4], 5.5 µM; in data set [5] it was over 1 µM.
Regarding `FC(F)c1nc2c3c(ccc2n1-c1nc(N2CCOCC2)nc(N2CCOCC2)n1)OCO3`, the IC50 in data set [1] turned out to be 0.55 µM; in data set [2], 0.039 µM; in data set [3] it was 0.13 µM; in data set [4], 0.04 µM; in data set [5], 0.047 µM.
With `COc1c(O)ccc2c1nc(C(F)F)n2-c1nc(N2CCOCC2)nc(N2CCOCC2)n1`, the IC50 in data set [2] was 0.0018 µM; in data set [4] it was 0.011 µM; in data set [5], 0.094 µM.
Consider `N#Cc1cccc2c1nc(C(F)F)n2-c1nc(N2CCOCC2)nc(N2CCOCC2)n1`, for which the IC50 in data set [1] is 0.061 µM; in data set [2], 0.066 µM; in data set [3], over 20 µM; in data set [4], over 20 µM; in data set [5], over 1 µM.
For `CCCCOc1cccc2c1nc(C(F)F)n2-c1nc(N2CCOCC2)nc(N2CCOCC2)n1`, the IC50 in data set [2] came out at 0.156 µM; in data set [3], 0.23 µM; in data set [4] it was 0.21 µM; in data set [5] it was 2.4 µM.
For `OCc1cccc2c1nc(C(F)F)n2-c1nc(N2CCOCC2)nc(N2CCOCC2)n1`, the concentration for half-maximal inhibition (IC50) in data set [1] was 0.027 µM; in data set [2], 0.012 µM; in data set [3], 0.3 µM; in data set [4] it was 0.17 µM; in data set [5] it was 0.068 µM.
The corresponding values for `Nc1cccc2c1nc(C(F)F)n2-c1nc(N2CCOCC2)nc(N2CCOCC2)n1` are 0.0048 µM, 0.00085 µM, 0.05 µM, 0.08 µM and 0.041 µM.
The corresponding values for `FC(F)c1nc2ccccc2n1-c1nc(N2CCOCC2)cc(N2CCOCC2)n1` are 0.03 µM, 0.01 µM, 0.12 µM, 0.26 µM and 0.072 µM.
The corresponding values for `FC(F)(F)c1nc2ccccc2n1-c1nc(N2CCOCC2)nc(N2CCOCC2)n1` are 0.202 µM, 0.07 µM, 0.9 µM, 0.7 µM and 0.461 µM.
In the case of `COc1ccc2c(nc(C(F)F)n2-c2nc(N3CCOCC3)nc(N3CCOCC3)n2)c1OC`, the IC50 in data set [1] worked out at 0.335 µM; in data set [2], 0.258 µM; in data set [3], 0.02 µM; in data set [4], 0.036 µM; in data set [5], 0.801 µM.
In the case of `FC(F)c1nc2ccccc2n1-c1cc(N2CCOCC2)nc(N2CCOCC2)n1`, the IC50 in data set [1] was found to be 0.088 µM; in data set [2], 0.013 µM; in data set [4], 0.3 µM; in data set [5], 0.17 µM.
As to `CSCc1nc2ccccc2n1-c1nc(N2CCOCC2)nc(N2CCOCC2)n1`, the IC50 was found to be 0.17 µM in data set [1]; 0.041 µM in data set [2]; 0.083 µM in data set [3]; 0.086 µM in data set [4]; 0.039 µM in data set [5].
The corresponding values for `CC(C)Oc1cccc2c1nc(C(F)F)n2-c1nc(N2CCOCC2)nc(N2CCOCC2)n1` are 0.364 µM, 0.43 µM, 0.07 µM, 0.28 µM and 2.1 µM.
Taken in the same sequence, the figures for `COc1cc(OC)c2nc(C(F)F)n(-c3nc(N4CCOCC4)nc(N4CCOCC4)n3)c2c1` were 0.058 µM, 0.0125 µM, 0.095 µM, 0.059 µM and 0.118 µM.
The corresponding values for `CNC(=O)c1cccc2c1nc(C(F)F)n2-c1nc(N2CCOCC2)nc(N2CCOCC2)n1` are 0.296 µM, 1 µM, 0.48 µM, 0.05 µM and over 1 µM.
Regarding `CCOc1cccc2c1nc(C(F)F)n2-c1nc(N2CCOCC2)nc(N2CCOCC2)n1`, the half-inhibitory concentration (IC50) in data set [1] is 0.0027 µM; in data set [2] it was 0.0055 µM; in data set [3], 0.07 µM; in data set [4] it was 0.04 µM; in data set [5] it was 0.104 µM.
Taken in the same sequence, the figures for `CNc1cc(OC)c2nc(C(F)F)n(-c3nc(N4CCOCC4)nc(N4CCOCC4)n3)c2c1` were 0.002 µM, 0.00052 µM, 0.39 µM, 0.016 µM and 0.00091 µM.
The molecule `CS(=O)(=O)O.Cn1c(=O)n(-c2ccc(C(C)(C)C#N)cc2)c2c3cc(-c4cnc5ccccc5c4)ccc3ncc21` registered a solubility at […] in data set [6] of 11.3 µg/mL.
Regarding `COc1cccc2c1nc(C(F)F)n2-c1nc(N2CCOCC2)cc(N2CCOCC2)n1`, the IC50 in data set [1] came to 0.0051 µM; in data set [2], 0.018 µM; in data set [3], 0.06 µM; in data set [4], 0.03 µM; in data set [5], 0.035 µM.
Taken in the same sequence, the figures for `CSc1nc2ccccc2n1-c1nc(N2CCOCC2)nc(N2CCOCC2)n1` were 2.9 µM, 0.27 µM, 0.2 µM, 0.2 µM and over 1 µM.
In the case of `CN(C)C(=O)c1cccc2c1nc(C(F)F)n2-c1nc(N2CCOCC2)nc(N2CCOCC2)n1`, the IC50 in data set [1] is over 1 µM; in data set [2], over 1 µM; in data set [3] it was 0.73 µM; in data set [4] it was 0.24 µM; in data set [5], over 1 µM.
For the molecule `COC(=O)c1cccc2c1nc(C(F)F)n2-c1nc(N2CCOCC2)nc(N2CCOCC2)n1`, the IC50 in data set [1] worked out at 0.0093 µM; in data set [2] it was 0.065 µM; in data set [3], 2.8 µM; in data set [4], 0.47 µM; in data set [5], 0.31 µM.
The corresponding values for `COc1cc(N(C)C)cc2c1nc(C(F)F)n2-c1nc(N2CCOCC2)nc(N2CCOCC2)n1` are 0.008 µM, 0.0068 µM, 0.13 µM, 0.15 µM and 0.0185 µM.
The corresponding values for `c1ccc2c(c1)ncn2-c1nc(N2CCOCC2)nc(N2CCOCC2)n1` are 0.265 µM, 0.142 µM, 1.5 µM, 0.3 µM and 1.54 µM.
For `COc1cccc2c1nc(C(F)F)n2-c1cc(N2CCOCC2)nc(N2CCOCC2)n1`, the figures for the IC50 in data set [1], in data set [2] and in data set [5] were 0.004 µM, 0.014 µM and 0.04 µM, respectively.
